The values that follow come from patent publication US20240208937A1, “Compounds and Their Use for Treatment of Hemoglobinopathies” (Bristol-Myers Squibb Company, priority 2022, published 2024).

SMILES strings stand for the structures. Some results are limits rather than exact numbers.

The target of assay [1] is WIZ (Widely interspaced zinc finger) (Homo sapiens (Human), UniProt O95785+Q96SW2). Put plainly: HUDEP-2 WIZ HiBiT degradation assay. In kind it is cell-based. The note with it: HUDEP-2 WIZ HiBiT cells, 24 hours treatment, luminescence; for DC50: read-out: WIZ EC50. The method, then:
(§1) The HiBiT degradation assay for WIZ and ZBTB7A in HUDEP-2 cells was performed as described below. HUDEP-2 cells engineered to express a HiBiT tag in either the WIZ (Widely interspaced zinc finger) or ZBTB7A (Zinc Finger And BTB Domain Containing 7A) proteins were maintained in low attachment flasks in StemSpan SFEM II media supplemented with Penicillin-Streptomycin (50 U/mL), rhSCF (50 ng/mL), rhEPO (3 IU/mL), dexamethasone (0.4 μg/mL) and doxycycline (1 μg/mL). Prior to start of the assay, cell count and viability were measured by trypan blue exclusion using the Vi-cell XR cell viability analyzer. For the HUDEP-2 WIZ HiBiT assay, cells were transferred to a 50 mL conical and centrifuged at 500 g for five minutes. Cells were resuspended in fresh StemSpan SFEM II media supplemented with Penicillin-Streptomycin (50 U/mL), rhSCF (50 ng/mL), rhEPO (3 IU/mL), dexamethasone (0.4 μg/mL) and doxycycline (1 μg/mL) at a density of 1.0×10^6 cells/ml. Forty microliters of cell suspension was dispensed into 384-well Low Flange White Flat Bottom Polystyrene TC-treated Microplates containing pre-dispensed compounds, using a VIAFLO 384 liquid hander, and placed in a 37° C. incubator with 5% CO2. […] After 24 hours of treatment, 40 μL Nano-Glo HiBiT Lytic Detection System reagent was dispensed into each well using a VIAFLO 384 liquid hander. Plates were incubated for 25 minutes at room temperature and the luminescence was read as relative luminescent units using the EnVision plate reader. EC50 and Y-min values were calculated using curves calculated from dotmatics software after the normalization to the DMSO control of 10 different concentrations: 10, 3.33, 1.11, 0.37, 0.12, 0.04 0.0137, 0.0046, 0.0015 and 0.0005 μM respectively.

For assay [2], the target named is ZBTB7A (Zinc Finger And BTB Domain Containing 7A) (Homo sapiens (Human), UniProt O95365+Q96SW2). The assay can be described thus: HUDEP-2 ZBTB7A HiBiT degradation assay. In kind it is cell-based. The note with it: HUDEP-2 ZBTB7A HiBiT cells, 24 hours treatment, luminescence; for DC50: read-out: ZBTB7A EC50. As for the experimental part: as §1
ZBTB7A (Zinc Finger And BTB Domain Containing 7A), sequence (O95365 whole entry, the tested form may be a part): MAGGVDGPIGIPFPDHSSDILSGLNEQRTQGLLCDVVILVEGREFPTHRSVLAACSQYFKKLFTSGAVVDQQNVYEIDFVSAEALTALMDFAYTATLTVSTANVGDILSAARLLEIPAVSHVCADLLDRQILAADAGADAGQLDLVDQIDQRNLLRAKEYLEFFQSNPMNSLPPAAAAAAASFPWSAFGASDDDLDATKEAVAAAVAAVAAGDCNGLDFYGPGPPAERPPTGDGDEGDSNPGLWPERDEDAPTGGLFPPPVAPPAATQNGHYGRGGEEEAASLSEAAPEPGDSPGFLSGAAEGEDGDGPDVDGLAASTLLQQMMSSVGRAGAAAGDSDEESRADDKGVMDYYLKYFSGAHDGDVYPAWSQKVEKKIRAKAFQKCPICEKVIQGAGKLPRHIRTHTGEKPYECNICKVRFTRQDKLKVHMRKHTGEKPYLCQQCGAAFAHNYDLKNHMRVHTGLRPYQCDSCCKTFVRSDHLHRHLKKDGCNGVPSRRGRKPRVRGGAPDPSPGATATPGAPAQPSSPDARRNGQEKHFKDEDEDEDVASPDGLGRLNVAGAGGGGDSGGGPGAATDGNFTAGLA
ZBTB7A (Zinc Finger And BTB Domain Containing 7A), sequence (Q96SW2 whole entry, the tested form may be a part): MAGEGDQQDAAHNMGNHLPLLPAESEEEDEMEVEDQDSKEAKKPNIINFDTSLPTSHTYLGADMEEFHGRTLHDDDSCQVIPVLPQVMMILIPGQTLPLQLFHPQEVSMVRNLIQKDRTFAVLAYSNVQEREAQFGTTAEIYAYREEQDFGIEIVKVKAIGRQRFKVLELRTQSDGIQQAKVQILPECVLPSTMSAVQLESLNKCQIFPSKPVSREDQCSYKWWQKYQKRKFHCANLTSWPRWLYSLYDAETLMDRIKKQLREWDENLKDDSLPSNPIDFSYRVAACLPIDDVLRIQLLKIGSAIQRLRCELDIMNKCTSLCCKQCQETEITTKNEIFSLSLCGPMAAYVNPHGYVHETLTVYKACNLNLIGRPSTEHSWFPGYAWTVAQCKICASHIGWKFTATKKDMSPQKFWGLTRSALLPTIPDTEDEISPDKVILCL
ZBTB7A (Zinc Finger And BTB Domain Containing 7A), sequence (Q16531 whole entry partner, the tested form may be a part): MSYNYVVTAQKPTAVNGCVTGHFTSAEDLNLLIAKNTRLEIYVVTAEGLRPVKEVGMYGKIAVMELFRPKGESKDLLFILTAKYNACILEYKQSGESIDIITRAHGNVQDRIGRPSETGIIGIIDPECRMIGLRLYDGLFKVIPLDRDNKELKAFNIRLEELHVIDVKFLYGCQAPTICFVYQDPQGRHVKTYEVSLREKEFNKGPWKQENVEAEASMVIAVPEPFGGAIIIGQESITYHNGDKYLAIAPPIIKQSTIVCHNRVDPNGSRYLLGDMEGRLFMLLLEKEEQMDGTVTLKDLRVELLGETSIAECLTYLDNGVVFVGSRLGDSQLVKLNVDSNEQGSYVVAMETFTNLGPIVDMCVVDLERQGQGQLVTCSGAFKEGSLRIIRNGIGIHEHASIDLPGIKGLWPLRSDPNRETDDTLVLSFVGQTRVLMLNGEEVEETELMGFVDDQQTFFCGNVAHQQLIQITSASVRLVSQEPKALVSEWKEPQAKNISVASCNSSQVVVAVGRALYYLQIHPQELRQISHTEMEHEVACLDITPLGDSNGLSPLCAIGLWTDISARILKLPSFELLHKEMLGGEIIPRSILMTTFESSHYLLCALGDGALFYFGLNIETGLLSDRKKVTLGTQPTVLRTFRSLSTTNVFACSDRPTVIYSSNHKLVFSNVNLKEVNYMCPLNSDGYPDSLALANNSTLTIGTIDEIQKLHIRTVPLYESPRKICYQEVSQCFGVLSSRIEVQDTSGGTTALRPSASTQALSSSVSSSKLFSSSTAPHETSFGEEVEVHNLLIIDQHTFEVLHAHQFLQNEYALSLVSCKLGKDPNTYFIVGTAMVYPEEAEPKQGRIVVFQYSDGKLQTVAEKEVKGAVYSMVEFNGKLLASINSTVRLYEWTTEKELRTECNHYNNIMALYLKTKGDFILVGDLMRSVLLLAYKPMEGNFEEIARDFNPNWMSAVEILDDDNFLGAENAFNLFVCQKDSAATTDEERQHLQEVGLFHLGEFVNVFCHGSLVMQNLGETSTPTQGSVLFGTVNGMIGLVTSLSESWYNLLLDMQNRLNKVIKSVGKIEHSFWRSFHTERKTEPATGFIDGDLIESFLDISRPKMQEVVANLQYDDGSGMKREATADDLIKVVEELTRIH
For the HUDEP-2 ZBTB7A HiBiT assay, cell count and viability were measured by trypan blue exclusion using the Vi-cell XR cell viability analyzer and the cells were transferred to a 50 mL conical and centrifuged at 500 g for five minutes. Cells were resuspended in fresh IMDM media supplemented with L-Glutamine (1×), Penicillin-Streptomycin (50 U/mL), holo-transferrin (330 μg/mL), heparin (2 IU/mL), r-human Insulin (10 μg/mL), rhEPO (3 IU/mL), rhSCF (100 ng/mL)+Dox (1 μg/mL) and 5% human plasma in low attachment flasks, which were placed in a 37° C. incubator with 5% CO2. After 48 hours, cell count and viability were measured by trypan blue exclusion using the Vi-cell XR cell viability analyzer. The HUDEP-2 ZBTB7A cells were transferred to a 50 mL conical, centrifuged at 500 g for five minutes and resuspended at a density of 1.0×10^6 cells/ml in IMDM media supplemented with L-Glutamine (1×), Penicillin-Streptomycin (50 U/mL), holo-transferrin (330 μg/mL), heparin (2 IU/mL), r-human Insulin (10 μg/mL), rhEPO (3 IU/mL), rhSCF (100 ng/mL)+Dox (1 μg/mL) and 5% human plasma. Forty microliters of cell suspension was dispensed into 384-well Low Flange White Flat Bottom Polystyrene TC-treated Microplates containing pre-dispensed compounds, using a VIAFLO 384 liquid hander, and placed in a 37° C. incubator with 5% CO2. […] After 24 hours of treatment, 40 μL Nano-Glo HiBiT Lytic Detection System reagent was dispensed into each well using a VIAFLO 384 liquid hander. Plates were incubated for 25 minutes at room temperature and the luminescence was read as relative luminescent units using the EnVision plate reader. EC50 and Y-min values were calculated using curves calculated from dotmatics software after the normalization to the DMSO control of 10 different concentrations: 10, 3.33, 1.11, 0.37, 0.12, 0.04 0.0137, 0.0046, 0.0015 and 0.0005 μM respectively.

WIZ (Widely interspaced zinc finger), sequence (O95785 whole entry, the tested form may be a part): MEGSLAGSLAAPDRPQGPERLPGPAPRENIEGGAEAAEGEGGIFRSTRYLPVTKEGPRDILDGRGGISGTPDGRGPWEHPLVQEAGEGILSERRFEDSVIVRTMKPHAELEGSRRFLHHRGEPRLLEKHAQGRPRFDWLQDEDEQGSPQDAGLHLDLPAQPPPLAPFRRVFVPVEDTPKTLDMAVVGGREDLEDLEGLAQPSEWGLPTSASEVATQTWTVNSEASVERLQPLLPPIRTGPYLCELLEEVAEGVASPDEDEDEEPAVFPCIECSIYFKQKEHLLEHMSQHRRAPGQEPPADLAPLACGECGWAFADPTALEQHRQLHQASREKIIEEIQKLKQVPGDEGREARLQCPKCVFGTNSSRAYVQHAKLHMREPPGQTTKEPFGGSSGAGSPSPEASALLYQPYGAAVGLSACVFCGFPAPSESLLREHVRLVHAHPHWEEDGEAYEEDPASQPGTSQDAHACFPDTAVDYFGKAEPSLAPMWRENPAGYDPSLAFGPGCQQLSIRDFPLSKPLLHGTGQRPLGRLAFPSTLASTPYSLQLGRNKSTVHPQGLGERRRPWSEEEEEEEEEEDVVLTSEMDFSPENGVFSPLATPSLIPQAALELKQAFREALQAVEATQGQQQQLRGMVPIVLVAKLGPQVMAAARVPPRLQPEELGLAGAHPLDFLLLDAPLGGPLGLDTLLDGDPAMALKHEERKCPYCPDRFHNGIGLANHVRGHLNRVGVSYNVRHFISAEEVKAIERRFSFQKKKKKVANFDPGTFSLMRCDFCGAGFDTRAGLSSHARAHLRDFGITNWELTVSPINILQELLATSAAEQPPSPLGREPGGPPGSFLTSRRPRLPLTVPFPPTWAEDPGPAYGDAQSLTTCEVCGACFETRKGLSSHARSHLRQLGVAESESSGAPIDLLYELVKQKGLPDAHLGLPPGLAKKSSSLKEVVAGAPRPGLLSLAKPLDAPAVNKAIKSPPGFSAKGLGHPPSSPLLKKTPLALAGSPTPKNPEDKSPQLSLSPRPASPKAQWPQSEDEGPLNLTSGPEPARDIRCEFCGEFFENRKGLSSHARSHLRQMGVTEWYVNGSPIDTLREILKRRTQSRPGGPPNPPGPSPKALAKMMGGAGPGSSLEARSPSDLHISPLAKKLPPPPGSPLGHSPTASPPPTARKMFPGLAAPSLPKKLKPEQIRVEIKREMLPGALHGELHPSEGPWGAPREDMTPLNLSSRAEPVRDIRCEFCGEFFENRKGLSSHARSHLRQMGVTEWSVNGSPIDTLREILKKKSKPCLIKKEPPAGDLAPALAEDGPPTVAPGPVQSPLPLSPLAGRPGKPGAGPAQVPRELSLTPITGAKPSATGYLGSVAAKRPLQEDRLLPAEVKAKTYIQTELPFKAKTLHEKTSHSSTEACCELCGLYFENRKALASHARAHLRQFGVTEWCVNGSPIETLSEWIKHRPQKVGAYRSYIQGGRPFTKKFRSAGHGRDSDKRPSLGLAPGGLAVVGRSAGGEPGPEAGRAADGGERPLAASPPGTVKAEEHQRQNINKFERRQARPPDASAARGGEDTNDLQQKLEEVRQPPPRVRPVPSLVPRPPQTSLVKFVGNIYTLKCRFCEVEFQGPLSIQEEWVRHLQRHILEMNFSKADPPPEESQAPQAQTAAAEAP
WIZ (Widely interspaced zinc finger), sequence (Q96SW2 whole entry, the tested form may be a part): as the sequence (Q96SW2 whole entry, the tested form may be a part) above
WIZ (Widely interspaced zinc finger), sequence (Q16531 whole entry partner, the tested form may be a part): as the sequence (Q16531 whole entry partner, the tested form may be a part) above

With `COc1nccc(-c2cc3c(cc2Nc2cccc4c2C(=O)N(C2CCC(=O)NC2=O)C4=O)N(C)C(=O)CC3)c1F` (stereo not shown) [Compound 50, 2-(2,6-dioxopiperidin-3-yl)-4-((6-(3-fluoro-2-methoxypyridin-4-yl)-1-methyl-2-oxo-1,2,3,4-tetrahydroquinolin-7-yl)amino)isoindoline-1,3-dione], in assay [1], the DC50 lay within 0.01 to 0.1 µM. The compound further showed an EC50 in assay [2] of less than 0.03 µM.
Turning to `COc1cc(-c2cc3c(cc2Nc2cccc4c2C(=O)N(C2CCC(=O)NC2=O)C4=O)N(C)C(=O)CC3)c(F)cn1` (stereo not shown) [Compound 51, 2-(2,6-dioxopiperidin-3-yl)-4-((6-(5-fluoro-2-methoxypyridin-4-yl)-1-methyl-2-oxo-1,2,3,4-tetrahydroquinolin-7-yl)amino)isoindoline-1,3-dione], the DC50 was in the range of 0.01 to 0.1 µM in assay [1] and 0.03 to 0.1 µM in assay [2].
For the compound `Cc1cc(-c2cc3c(cc2Nc2cccc4c2C(=O)N([C@]2(C)CCC(=O)NC2=O)C4=O)N(C)C(=O)CC3)ccn1` [Compound 53, (R)-2-(3-methyl-2,6-dioxopiperidin-3-yl)-4-((1-methyl-6-(2-methylpyridin-4-yl)-2-oxo-1,2,3,4-tetrahydroquinolin-7-yl)amino)isoindoline-1,3-dione], the DC50 in assay [1] was greater than 0.1 µM. In addition, the EC50 in assay [2] is greater than 0.1 µM.
Turning to `Cc1nn(C)cc1-c1cc2c(cc1Nc1cccc3c1C(=O)N([C@H]1CCC(=O)NC1=O)C3=O)N(C)C(=O)CC2` [Compound 38, (S)-4-((6-(1,3-dimethyl-1H-pyrazol-4-yl)-1-methyl-2-oxo-1,2,3,4-tetrahydroquinolin-7-yl)amino)-2-(2,6-dioxopiperidin-3-yl)isoindoline-1,3-dione], the DC50 in assay [1] fell in the range of 0.01 to 0.1 µM. The compound further gave an EC50 in assay [2] of less than 0.03 µM.
Regarding `Cc1cc(-c2cc3c(cc2Nc2cccc4c2C(=O)N([C@H]2CCC(=O)NC2=O)C4=O)N(C)C(=O)CC3)cn(C)c1=O` [Compound 35, (S)-4-((6-(1,5-dimethyl-6-oxo-1,6-dihydropyridin-3-yl)-1-methyl-2-oxo-1,2,3,4-tetrahydroquinolin-7-yl)amino)-2-(2,6-dioxopiperidin-3-yl)isoindoline-1,3-dione], the DC50 in assay [1] was 0.01 to 0.1 µM; in assay [2], 0.03 to 0.1 µM.
As to `CN1C(=O)CCc2cc(-c3cnn(C4CC4)c3)c(Nc3cccc4c3C(=O)N([C@H]3CCC(=O)NC3=O)C4=O)cc21` [Compound 37, (S)-4-((6-(1-cyclopropyl-1H-pyrazol-4-yl)-1-methyl-2-oxo-1,2,3,4-tetrahydroquinolin-7-yl)amino)-2-(2,6-dioxopiperidin-3-yl)isoindoline-1,3-dione], the EC50 is less than 0.01 µM in assay [1] and less than 0.03 µM in assay [2].
For `CN1C(=O)CCc2cc(C3CC3)c(Nc3cccc4c3C(=O)N(C3CCC(=O)NC3=O)C4=O)cc21` (stereo not shown) [Compound 34, 4-((6-cyclopropyl-1-methyl-2-oxo-1,2,3,4-tetrahydroquinolin-7-yl)amino)-2-(2,6-dioxopiperidin-3-yl)isoindoline-1,3-dione], the DC50 in assay [1] fell in the range of 0.01 to 0.1 µM. In assay [2], this compound registered an EC50 of less than 0.03 µM.
For `CN1C(=O)CCc2cc(-c3cnn(C)c3)c(Nc3cccc4c3C(=O)N(C3CCC(=O)NC3=O)C4=O)cc21` (stereo not shown) [Compound 36, 2-(2,6-dioxopiperidin-3-yl)-4-((1-methyl-6-(1-methyl-1H-pyrazol-4-yl)-2-oxo-1,2,3,4-tetrahydroquinolin-7-yl)amino)isoindoline-1,3-dione] the same measures were 0.01 to 0.1 µM and less than 0.03 µM.
As to `CC1(N2C(=O)c3cccc(Nc4cccc(COc5ccccc5)c4)c3C2=O)CCC(=O)NC1=O` (stereo not shown) [Compound 54, 2-(3-methyl-2,6-dioxopiperidin-3-yl)-4-((3-(phenoxymethyl)phenyl)amino)isoindoline-1,3-dione], in assay [1], the DC50 was greater than 0.1 µM. This compound also displayed an EC50 in assay [2] greater than 0.1 µM.
Consider `Cc1cc2c(cc1Nc1cccc3c1C(=O)N(C1CCC(=O)NC1=O)C3=O)N(C)C(=O)CC2` (stereo not shown) [Compound 33, 4-((1,6-dimethyl-2-oxo-1,2,3,4-tetrahydroquinolin-7-yl)amino)-2-(2,6-dioxopiperidin-3-yl)isoindoline-1,3-dione], for which the DC50 is 0.01 to 0.1 µM in assay [1] and 0.03 to 0.1 µM in assay [2].
`COc1cc(-c2cc3c(cc2Nc2cccc4c2C(=O)N([C@H]2CCC(=O)NC2=O)C4=O)N(C)C(=O)CC3)cc(C)n1` [Compound 49, (S)-2-(2,6-dioxopiperidin-3-yl)-4-((6-(2-methoxy-6-methylpyridin-4-yl)-1-methyl-2-oxo-1,2,3,4-tetrahydroquinolin-7-yl)amino)isoindoline-1,3-dione]: the EC50 in assay [1] was less than 0.01 µM; in assay [2], less than 0.03 µM.
